Laboratory results as given in US20100087546A1, “USE OF DIMETHYL SULFONE (MSM) TO REDUCE HO[…]” (BIOGENIC INNOVATIONS, LLC, priority 2005, published 2010).
Entries after “also recorded” stand apart in the source; their conditions may differ.

What was measured:
Type in all cases: in vivo, human
homocysteine = experiment: Serum homocysteine measured at baseline and 12 weeks in the 2005 osteoarthritis study; settings: 6 g/day, baseline versus 12 weeks, FIG. 2
Excerpt: (§1) In 2005, Applicant commissioned a study to determine the efficacy of dimethyl sulfone in the treatment of pain and physical function impairment due to osteoarthritis. The results of the study are published in Kim, et al, Efficacy of methylsulfonylmethane (MSM) in osteoarthritis pain of the knee: a pilot clinical trial. OsteoArthritis and Cartilage, herein incorporated by reference in its entirety. Patients were given dosage of 6 g of dimethyl sulfone (Distilled MSM microprill (OptiMSM®, Cardinal Nutrition, Vancouver, Wash.)) per day in a stepwise approach. In week 1, dosages started with 2 g/day in two divided doses for 3 days, and then increased to 4 g/day for 4 days. Week 2, increased to 6 g/day. In the control group, a placebo was administered that consisted of inert ingredients and that was indistinguishable in color, size and taste from the dimethyl sulfone.
(§2) During the 2005 osteoarthritis study, described above, dimethyl sulfone's potential activities were also evaluated. Serum homocysteine, high sensitive C-reactive protein (CRP), erythrocyte sedimentation rate (ESR), and urine malondialdehyde (MDA) were measured at baseline and 12 weeks.
Since dimethyl sulfone is a putative methyl donor, it was believed that dimethyl sulfone may act as a co-factor in reducing homocysteine levels. […]

[1] = test system: osteoarthritis pain of the knee; experiment: 12-week randomized, double-blind, placebo-controlled trial in osteoarthritis of the knee (WOMAC pain and physical function); settings: 3 g twice a day (6 g/day) for 12 weeks, oral, OA of the knee, versus placebo
Excerpt: as §1
In a study directed by Applicant or its related affiliate, and as reported in Kim et al (published in 2006), herein incorporated by reference in its entirety, the effects of dimethyl sulfone on OA of the knee were evaluated. Qualified patients (n=50) were as-signed to MSM (n=25) or placebo (n=25) in a 12-week randomized, double-blind, placebo-controlled trial using computer-generated random numbers (FIG. 1).
At week 1, subjects were administered 2 g/day in two divided doses for 3 days, and then increased to 4 g/day for 4 days. […]

[2] = 2008 acute oral dosing study, pharmacokinetic blood draws (serum dimethyl sulfone levels)
Procedure: In a study directed by Applicant or its related affiliate in 2008, six participants received three doses of dimethyl sulfone at three acute test visits spaced one week apart. Subjects were monitored for four hours post dose, with pharmacokinetic (PK) and phamacodynamic blood draws at 0, 45, 90, 135, 180 and 240 minutes post dosing. Subjects also provided a 24-hour post-dose urine collection for assay of dimethyl sulfone and sulfate levels.
Rough estimates have been obtained for the half times of absorption (½ hour) and elimination (8 hours).

malondialdehyde (MDA) = experiment: Urine malondialdehyde (MDA) measured at baseline and 12 weeks in the 2005 osteoarthritis study; settings: 6 g/day, baseline versus 12 weeks
Excerpt: as §1, §2
The combined decreases in homocysteine and urine MDA during the 2005 osteoarthritis study supports the role of dimethyl sulfone in metabolic processes requiring methylation, such as antioxidant capacities. […]

[3] = blood draws 0-240 minutes post dosing
[4] = six participants, rough estimate

dimethyl sulfone
serum homocysteine levels (homocysteine): significantly decreased; also recorded: decreases
symptoms of pain and physical function (WOMAC subscales) [1]: produced improvement in two of the three WOMAC subscales, pain and physical function
symptoms of pain and physical function (WOMAC subscales) ([1]; listed as dimethyl sulfone): improved symptoms of pain and physical function
absorption from the upper gastrointestinal tract (serum level pattern) [2, 3]: fairly rapid absorption from the upper gastrointestinal tract (within an hour)
elimination from the bloodstream (serum level pattern) [2, 3]: slower elimination from the bloodstream (over the course of one or two days)
half time of absorption [2, 4]: ½
half time of elimination [2, 4]: ~8 h
urine MDA (malondialdehyde (MDA)): decreases
